Patent US10821096B1, “Compounds for inhibiting NS3 and compositions containing the inhibited protein” (priority 2019, dated 2020)

Experiments:
NS3 [1] = target: T1, NS3 (Hepatitis C virus genotype 4a, UniProt O39929, A1087S/A1113S/A1121T/A1128S/I1140V/I1160T/I1179L/R1118K/R1176A/S1127A); assay: Binding and competition assay (fluorescence anisotropy, displacement of FITC-NS4A from NS3); design: species or system HCV genotype 4a; conditions: for binding affinity (in words): fluorescence anisotropy competition with FITC-NS4A
T1 construct: NS3 protease domain 1-181 aa+N-terminal T7 tag and C-terminal His tag; T7 tag (N); made in house; host or cells: E. coli Rosette (DE3) pLysS, vector pET-3a
Description: Binding buffer (20 mM HEPES, 10 mM DTT, 200 mM NaCl, pH 7.6), a mixture of NS3 (1.8 μM) and FITC-NS4A ([…]) at the calculated affinity constant concentration were placed in a 96-well plate as binding test solution. A serial dilution of MOC compounds (dissolved in 1.5% DMSO in binding buffer) (1/2 dilution starting from 150 μM to 0.292 μM) was mixed gently with the binding text solution for 60 minutes in the dark. The dissociation constant was calculated according to the recommended equation embedded in GraphPad Prism v8.
The binding affinity test was performed using fluorescence anisotropy technique. In this test, maximum fluorescence was first determined at optimal ratio of NS3 (1.8 μM) and FITC-NS4A (0.1 μM). Compounds that compete with NS4A should be able to decrease the fluorescence of this mixture because they prevent the binding to occur and it should be concentration-dependent. […] The reproducibility was checked using another batch of the express NS3 protein following the same procedure and the value was calculated=7.815±1.014 μM. […] Therefore, compound MOC-23 was tested for its ability to inhibit the NS3 enzyme.

NS3 [2] = target: T1, NS3; assay: Enzyme inhibition assay (SensoLyte-520 HCV protease assay kit, FRET peptide); assay type: biochemical, HCV genotype 4a; conditions: MOC-23 at 6.3 μM, NS3 4.0 μM, 5-FAM/QXL520 FRET peptide
Description: The assay was performed using SensoLyte-520® HCV protease assay kit Fluorometric® (Anaspec, Fremont, Calif., USA) according to a modified procedure to suit the purpose of determination of allosteric inhibition. NS3 (4.0 μM) was mixed with MOC-23 (6.3 μM) for 15 minutes. Afterwards, 5-FAM/QXL™520 fluorescence resonance energy transfer (FRET) peptide was added as instructed by the assay kit manual. The sequence of this FRET peptide (5-FAM-SLGRKIQIQ) is derived from the cleavage site of NS4A/NS4B. In the FRET peptide, the fluorescence of 5-FAM is quenched by QXL™520. Upon cleavage into two separate fragments by HCV NS3/4A protease, the fluorescence of 5-FAM is recovered, and can be monitored at 490 nm/520 nm (excitation/emission). Controls included buffer, compound, compound+NS3, NS3+NS4A and FRET peptide separately. All test wells and controls were repeated in triplicates at the same 96-well plate.

T1 sequence (O39929 1027-1207 A1087S/A1113S/R1118K/A1121T/S1127A/A1128S/I1140V/I1160T/R1176A/I1179L): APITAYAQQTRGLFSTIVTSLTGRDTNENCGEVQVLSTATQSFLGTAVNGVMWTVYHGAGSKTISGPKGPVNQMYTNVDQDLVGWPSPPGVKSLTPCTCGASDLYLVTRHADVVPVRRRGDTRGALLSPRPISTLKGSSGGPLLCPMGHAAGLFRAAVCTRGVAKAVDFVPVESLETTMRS

Structure (SMILES): CCCCCCNC(=O)c1ncc(C(=O)NCCCCNC(=N)N)[nH]1 [MOC-24, N^5-(4-guanidinobutyl)-N^2-(n-hexyl)-1H-imidazole-2,5-dicarboxamide]
- binding affinity (in words) (NS3 [1]): binding affinity at similar level

Structure (SMILES): CCCCCNC(=O)c1ncc(C(=O)NCCCCNC(=N)N)[nH]1 [MOC-23, N^5-(4-guanidinobutyl)-N^2-(n-pentyl)-1H-imidazole-2,5-dicarboxamide]
- inhibition of NS3 proteolytic activity (NS3 [2]): abolished any proteolytic activity
- Kd (NS3 [1]; dissociation constant (reproducibility check), another batch of the expressed NS3 protein, same procedure): 7.81 ± 1.01 µM
- Kd (NS3 [1]; dissociation constant Kd (competition with FITC-NS4A), fluorescence anisotropy, NS3 1.8 μM, FITC-NS4A 0.1 μM, first batch of NS3): 6.3 ± 0.3 µM
- binding affinity (in words) (NS3 [1]): highest affinity
